According to patent US7741288B2, “Methods of screening of PP1-interacting polypeptides or proteins, peptides inhibiting PP1c binding to Bcl-2 proteins, Bcl-xL and Bcl-w, and uses thereof” (Institut Pasteur, priority 2002, dated 2010):
One block for each compound: values may come before it.

Legend:
[1] = biological target: T1, Bcl-xL/PP1c/Bad and Bcl-w/PP1c/Bad (Mus musculus, UniProt P62137); test: Protein-protein interaction competition in anti-Bad immunoprecipitates, western blot; assay type: binding, murine; conditions: 1.5 mM peptide, 30 min, room temperature; anti-Bad immunoprecipitates of IL-4-stimulated cells
T1 construct: Lysates from IL-4-stimulated cells were immunoprecipitated with anti-Bad antibody and Protein A Sepharose was added; endogenous in cells; host or cells: TS1αβ murine T cell line, IL-4-stimulated; anti-Bad immunoprecipitates on Protein A Sepharose
T1 sequence (P62137 2-330 limits assumed): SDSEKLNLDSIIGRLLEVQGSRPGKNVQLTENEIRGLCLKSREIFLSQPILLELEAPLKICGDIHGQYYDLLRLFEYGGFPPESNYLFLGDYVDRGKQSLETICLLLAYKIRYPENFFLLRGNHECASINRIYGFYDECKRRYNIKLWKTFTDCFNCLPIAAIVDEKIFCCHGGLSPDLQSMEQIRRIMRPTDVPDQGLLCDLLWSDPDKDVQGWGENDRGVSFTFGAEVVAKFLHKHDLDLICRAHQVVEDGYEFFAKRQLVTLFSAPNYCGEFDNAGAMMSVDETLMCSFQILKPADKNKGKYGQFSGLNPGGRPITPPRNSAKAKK
Protocol: A) Cytoplasmic extracts from control IL-4-stimulated cells were immunoprecipitated with anti-Bad antibody. The interaction Bcl-xL/PP1c/Bad and Bcl-w/PP1c/Bad was competed with 1.5 mM of R, R*, F or R+F peptides for 30 min at room temperature. Immunoprecipitates were washed, transferred to nitrocellulose and blotted with anti-Bad, anti-PP1c, anti-Bcl-xL and anti-Bcl-w. Similar results were obtained in two independent experiments. For sequence of peptides, see Materials and Methods or FIGS. 5A and 5B.
Cells (1×10^7) were IL-4-stimulated or -deprived and lysed for 20 min at 4° C. in lysis buffer (50 mM Tris HCl pH 8, 1% NP40, 137 mM NaCl, 1 mM MgCl2, 1 mM CaCl2, 10% glycerol and protease inhibitors cocktail). Digitonin or detergent free buffers were also used for immunoprecipitation. […]
(§1) Lysates from IL-4-stimulated cells were immunoprecipitated with anti-Bad antibody and the interaction Bcl-xL/PP1c and Bcl-w/PP1c was competed using R* (NWGRIAAAFSF) (SEQ ID NO: 8), R (NWGRIVAFFSF) (SEQ ID NO: 6) or F (GDEFELRYRRAF) (SEQ ID NO: 7) peptides (FIG. 8A). Bcl-xL, Bcl-w and PP1c were detected in control anti-Bad immunoprecipitates, as well as in anti-Bad immunoprecipitates treated with R* peptide. […] Phosphatase activity was detected in control or R* peptide-treated immunoprecipitates (FIG. 8B), decreasing upon competition of the interaction with F or R peptides. […]

PP1c [2] = biological target: T2, PP1c (Mus musculus, UniProt P62137); test: Phosphatase activity in peptide-treated Bad immunoprecipitates; assay type: biochemical, murine; design: Lysates from IL-4-stimulated cells were immunoprecipitated with anti-Bad antibody and Protein A Sepharose was added; endogenous in cells; host or cells: TS1αβ murine T cell line, IL-4-stimulated; anti-Bad immunoprecipitates on Protein A Sepharose; conditions: 1.5 mM peptide, 30 min, room temperature
Protocol: B) Cytoplasmic lysates from IL-4-stimulated cells were immunoprecipitated with anti-Bad antibody. Immunoprecipitates were treated with 1.5 mM of R, R*, F or R+F peptides for 30 min at room temperature. Immunoprecipitates were washed and phosphatase activity estimated using ^32P phosphorylase a as substrate. Similar results were obtained in two independent experiments.
C) Cytoplasmic lysates from IL-4-stimulated cells were immunoprecipitated with anti-Bad antibody and then treated with 1.5 mM of R+F peptide or 3 mM of R or F peptide (30 min, room temperature). Immunoprecipitates were washed and phosphatase activity estimated as in B.
IL-4-stimulated cells (1×10^7) were lysed in lysis buffer, supernatants were immunoprecipitated with the corresponding antibody, followed by incubation with Protein A Sepharose. […]
as §1
Target sequence in this assay (P62137 2-330 limits assumed): as above

PP1c [3] = biological target: T3, PP1c (Homo sapiens, UniProt P62136); test: PP1c binding assay on cellulose-bound Bcl-xL or Bcl-w peptides; conditions: membrane-immobilized peptides, anti-PP1c antibody, ECL
T3 construct: purchased Calbiochem
T3 sequence (P62136 whole entry): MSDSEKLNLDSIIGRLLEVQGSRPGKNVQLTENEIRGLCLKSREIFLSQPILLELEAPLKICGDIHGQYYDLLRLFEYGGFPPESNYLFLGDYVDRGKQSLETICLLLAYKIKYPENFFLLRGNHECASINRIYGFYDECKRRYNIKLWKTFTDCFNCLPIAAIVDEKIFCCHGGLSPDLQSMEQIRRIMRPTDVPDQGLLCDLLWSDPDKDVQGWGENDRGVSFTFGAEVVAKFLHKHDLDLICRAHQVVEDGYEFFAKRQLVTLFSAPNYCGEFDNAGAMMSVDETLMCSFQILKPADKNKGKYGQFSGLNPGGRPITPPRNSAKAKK
Source text: Spots were detected using ECL system. […] Mutated amino acids into the motif are in bold and underlined. Similar results were obtained in two independent experiments. Peptide 1 corresponds to the PP1 binding motif of Bcl-xL and Bcl-w. Peptide 2 corresponds to the mutated PP1 binding site were V and F residues were mutated to A. FIG. 5b contains the following sequences: NWGRIVAFFSFG (SEQ ID NO: 6), NWGRIAAAFSFG (SEQ ID NO: 51): GDEFELRYRRAF (SEQ ID NO: 7). GDEGELGYGRAF (SEQ ID NO: 59): GDESELSYSRAF (SEQ ID NO: 54). GDEFELGYGRAF (SEQ ID NO: 55): GDEFELSYSRAF (SEQ ID NO: 56). GDEGELRYRRAF (SEQ ID NO: 57): GDEGELRYRRAF (SEQ ID NO: 58): GDEGELGYRRAF (SEQ ID NO: 59). GDESELSYRRAF (SEQ ID NO: 60). PNWGRLVAFFVFG (SEQ ID NO: 61): PNWGRLAAAFVFG (SEQ ID NO: 62). GDEFETRFRRTFS (SEQ ID NO: 63): GDEFETGFGRTFS (SEQ ID NO: 64). GDEFETGFGRTFS (SEQ ID NO: 65), GDEFETRFGRTFS (SEQ ID NO: 66). GDEGETGFRRTFS (SEQ ID NO: 67). GDEGETRFRRTFS (SEQ ID NO: 68). FIG. 5a contains the following sequences FSRRYR (SEQ ID NO: 5). FTARGR (SEQ ID NO: 5). FELRYR (SEQ ID NO: 5). FETRFR (SEQ ID NO: 5).
Membrane was blocked, incubated with purified PP1c and, after several washing steps, incubated with anti-PP1c antibody, followed by PO-conjugated secondary antibody. Spots were developed using the ECL system.
It has been described that R/K X V/I X F motif is shared by most of the PP1c targeting subunits (21, 23). […]

PP1c [4] = biological target: T2, PP1c; test: In vitro phosphatase assay in Bad or Bcl-w immunoprecipitates with okadaic acid, 32P phosphorylase a as substrate; assay type: biochemical, murine; design: enzymatic activity was estimated in Bad or Bcl-w immunoprecipitates from IL-4-stimulated cells; endogenous in cells; host or cells: TS1αβ murine T cell line, IL-4-stimulated; anti-Bad or anti-Bcl-w immunoprecipitates on Protein A Sepharose
Protocol: B) Different concentrations of OA were added to Bad or Bcl-w immunoprecipitates from IL-4 stimulated cells. Phosphatase activity was estimated using ^32P phosphorylase a as substrate. […] Phosphatase activity is represented as the percentage of maximal activity in untreated supernatants.
(§2) IL-4-stimulated cells (1×10^7) were lysed in lysis buffer, supernatants were immunoprecipitated with the corresponding antibody, followed by incubation with Protein A Sepharose. Immunoprecipitates were washed with phosphatase buffer (50 mM Tris HCl, pH 7.5, 0.1% 2-ME, 0.1 mM EDTA and 1 mg/ml BSA) and mixed with [^32P] phosphorylase a, diluted in phosphatase buffer supplemented with caffeine. The reaction was incubated (40 min at 30° C.), stopped with 200 μl 20% TCA and centrifuged. A total of 185 μl of the supernatant were used to estimate the generation of free phosphate liberated from [^32P] phosphorylase a.
The enzymatic activity in the immunoprecipitates was measured using ^32P-labeled phosphorylase a as substrate. […] To confirm that this phosphatase activity was due to PP1c, enzymatic activity was estimated in Bad or Bcl-w immunoprecipitates from IL-4-stimulated cells in the presence of different okadaic acid (OA) concentrations (FIG. 5B). […] The effect of OA on phosphatase activity was also estimated in supernatants of Bad and Bcl-w immunoprecipitates.
Target sequence in this assay (P62137 2-330): as the sequence (P62137 2-330 limits assumed) above
Target sequence in this assay (P70345 2-193, further chain): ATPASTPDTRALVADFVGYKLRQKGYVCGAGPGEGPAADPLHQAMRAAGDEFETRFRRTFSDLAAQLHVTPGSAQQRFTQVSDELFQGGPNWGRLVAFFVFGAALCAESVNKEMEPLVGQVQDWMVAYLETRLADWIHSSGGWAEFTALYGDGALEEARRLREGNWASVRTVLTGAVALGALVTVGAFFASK
Target sequence in this assay (Q61337 whole entry, further chain): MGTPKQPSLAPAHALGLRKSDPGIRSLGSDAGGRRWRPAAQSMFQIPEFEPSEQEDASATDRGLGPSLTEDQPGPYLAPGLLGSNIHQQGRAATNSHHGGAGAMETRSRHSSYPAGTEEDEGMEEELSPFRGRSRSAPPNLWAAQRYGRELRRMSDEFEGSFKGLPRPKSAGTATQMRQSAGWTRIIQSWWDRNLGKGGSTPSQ

Bad = test: Serine 136 phosphorylation of Bad in OA-treated cells, western blot; assay type: cell-based, murine
Protocol: A) Cells were treated with or without 1 μM OA in the presence or the absence of IL-4. […] Protein bands were detected using ECL.
Cells (1×10^7) were IL-4-stimulated or -deprived and lysed for 20 min at 4° C. in lysis buffer (50 mM Tris HCl pH 8, 1% NP40, 137 mM NaCl, 1 mM MgCl2, 1 mM CaCl2, 10% glycerol and protease inhibitors cocktail). Digitonin or detergent free buffers were also used for immunoprecipitation. For phosphorylation analysis, the buffer was also supplemented with phosphatase inhibitors cocktail. Lysates were immunoprecipitated with the Appropriate antibody and Protein A Sepharose was added. Alliteratively, cells were lysed in Laemmli sample buffer and protein extracts separated by SDS-PAGE, transferred to nitrocellulose, blocked and incubated with primary antibody. Membrane was washed and incubated. with PO-conjugated secondary antibody. Proteins were developed using the ECL.
As IL-4-deprivation correlates with Bad dephosphorylation and apoptosis, it was hypothesized that inhibition of phosphatase activity by okadaic acid (OA) treatment may prevent Bad dephosphorylation and apoptosis. Treatment of the cells with 1 μM OA in the absence of IL-4 prevented Bad dephosphorylation at serine 136 (FIG. 9A). […] The inhibition of Bcl-xL and Bcl-w expression upon antisense oligonucleotide treatment was estimated by Western blot.

[5] = system: type 1 and type 2A activities; test: In vitro phosphatase assay in supernatants of Bad and Bcl-w immunoprecipitates with okadaic acid; assay type: biochemical, murine; conditions: 10^−9 M OA
Protocol: B) Different concentrations of OA were added to Bad or Bcl-w immunoprecipitates from IL-4 stimulated cells. Phosphatase activity was estimated using ^32P phosphorylase a as substrate. The reaction was as in A. Similar results were obtained in three independent experiments. Phosphatase activity is represented as the percentage of maximal activity in untreated supernatants.
as §2
The enzymatic activity in the immunoprecipitates was measured using ^32P-labeled phosphorylase a as substrate. It is interesting to notice that phosphatase activity detected in Bcl-xL and Bcl-w immunoprecipitates nearly corresponds to the phosphatase activity observed in Bad immunoprecipitates. […]

TS1αβ cells = test: Apoptosis by propidium iodide staining and flow cytometry; assay type: cell-based, murine; conditions: IL-4-deprived cells, 1 μM OA for 6 h

- amount of Bcl-xL, Bcl-w and PP1c associated to Bad after competition [1]: decreases
- phosphatase activity in peptide-treated Bad immunoprecipitates (PP1c [2]): decreasing
Compound: GDEFELRYRRAF [F peptide]

- binding to purified PP1c (PP1c [3]): interacts with PP1c
Compound: FETRFR

Compound: C=C1[C@@H](O)[C@@H]2O[C@]3(CC[C@H](/C=C/[C@@H](C)[C@@H]4CC(C)=C[C@@]5(O[C@H](C[C@@](C)(O)C(=O)O)CC[C@H]5O)O4)O3)CC[C@H]2O[C@@H]1[C@@H](O)C[C@H](C)[C@H]1O[C@@]2(CCCCO2)CC[C@H]1C [OA, okadaic acid]
- phosphatase activity (PP1c [4]; 10^−6 M OA, Bcl-w or Bad immunoprecipitates): strongly reduced
- inhibition at 0.01 µM (PP1c [4]; 10^−8 M OA, Bcl-w or Bad immunoprecipitates): ~50%
- effect on Bad- or Bcl-w-associated phosphatase activity in vitro (PP1c [4]; 10^−9 M OA, Bad or Bcl-w immunoprecipitates from IL-4-stimulated cells): no effect
- Bad dephosphorylation at serine 136 (Bad; 1 μM OA in the absence of IL-4): prevented
- total Bad expression (Bad; after OA treatment (1 μM)): No changes
- inhibition of phosphatase activity in the supernatant [5]: ~50%
- fraction of apoptotic cells compared with untreated cells (TS1αβ cells): significant reduction

- binding to purified PP1c (PP1c [3]): interacts with PP1c
Compound: FELRYR
